In patent US8558002B2, “Sulfoximines as kinase inhibitors” (Allergan, Inc., priority 2006, dated 2013):
pIC50: −log10 of the molar value.

Columns and labels:
PDGFRβ = target: T1, PDGFRβ (Homo sapiens, UniProt P09619); experiment: PDGFRβ Kinase Assay (poly-Glu-Tyr ELISA); type: biochemical; settings: purified cytoplasmic domain PDGFR-b protein, 36 μM ATP
T1 construct: 200-300 ng purified cytoplasmic domain PDGFR-b protein (Millipore); purchased Millipore
Procedure: Biochemical PDGFRβ kinase assays were performed in 96 well microtiter plates that were coated overnight with 75 μg of poly-Glu-Tyr (4:1) in 10 mM Phosphate Buffered Saline (PBS), pH 7.4. The coated plates were washed with 2 mls per well PBS+0.05% Tween-20 (PBS-T), blocked by incubation with PBS containing 1% BSA, then washed with 2 mls per well PBS-T prior to starting the reaction. Reactions were carried out in 100 μL reaction volumes containing 36 μM ATP in kinase buffer (50 mM Hepes buffer pH 7.4, 20 mM MgCl2, 0.1 mM MnCl2 and 0.2 mM Na3VO4). Test compounds were reconstituted in 100% DMSO and added to the reaction to give a final DMSO concentration of 5%. Reactions were initiated by the addition 20 ul per well of kinase buffer containing 200-300 ng purified cytoplasmic domain PDGFR-b protein (Millipore). Following a 60 minute incubation at 30° C., the reactions were washed 2 mls per well PBS-T. […] of a monoclonal anti-phosphotyrosine antibody-peroxidase conjugate diluted 1:10,000 in PBS-T was added to the wells for 30 minutes. Following a 2 mls per well wash with PBS-Tween-20, 100 μl of O-Phenylenediamine Dihydrochloride in phosphate-citrate buffer, containing urea hydrogen peroxide, was added to the wells for 7-10 minutes as a colorimetric substrate for the peroxidase. The reaction was terminated by the addition of 100 μl of 2.5N H2SO4 to each well and read using a microplate ELISA reader set at 492 nm. IC50 values for compound inhibition were calculated directly from graphs of optical density (arbitrary units) versus compound concentration following subtraction of blank values.

VEGFR2 [1] = target: T2, VEGFR2 (Homo sapiens, UniProt P35968); experiment: VEGFR2 Cellular Assay (FLIPR, VEGF induced increases in intracellular calcium in HUVEC); type: cell-based; set-up: host or cells: HUVEC; settings: VEGF165 stimulation (10 ng/mL), Fluo-4
Procedure: Automated FLIPR (Fluorometric Imaging Plate Reader) technology was used to screen for inhibitors of VEGF induced increases in intracellular calcium levels in fluorescent dye loaded endothelial cells. HUVEC (human umbilical vein endothelial cells) (Clonetics) were seeded in 384-well fibronectin coated black-walled plates overnight @ 37° C./5% CO2. Cells were loaded with calcium indicator Fluo-4 for 45 minutes at 37° C. Cells were washed 2 times (El×405, Biotek Instruments) to remove extracellular dye. For screening, cells were pre-incubated with test agents for 30 minutes, at a single concentration (10 uM) or at concentrations ranging from 0.0001 to 10.0 uM followed by VEGF165 stimulation (10 ng/mL). Changes in fluorescence at 516 nm were measured simultaneously in all 384 wells using a cooled CCD camera. Data were generated by determining max-min fluorescence levels for unstimulated, stimulated, and drug treated samples. IC50 values for test compounds were calculated from % inhibition of VEGF stimulated responses in the absence of inhibitor.
Target sequence in this assay (P35968 20-1356): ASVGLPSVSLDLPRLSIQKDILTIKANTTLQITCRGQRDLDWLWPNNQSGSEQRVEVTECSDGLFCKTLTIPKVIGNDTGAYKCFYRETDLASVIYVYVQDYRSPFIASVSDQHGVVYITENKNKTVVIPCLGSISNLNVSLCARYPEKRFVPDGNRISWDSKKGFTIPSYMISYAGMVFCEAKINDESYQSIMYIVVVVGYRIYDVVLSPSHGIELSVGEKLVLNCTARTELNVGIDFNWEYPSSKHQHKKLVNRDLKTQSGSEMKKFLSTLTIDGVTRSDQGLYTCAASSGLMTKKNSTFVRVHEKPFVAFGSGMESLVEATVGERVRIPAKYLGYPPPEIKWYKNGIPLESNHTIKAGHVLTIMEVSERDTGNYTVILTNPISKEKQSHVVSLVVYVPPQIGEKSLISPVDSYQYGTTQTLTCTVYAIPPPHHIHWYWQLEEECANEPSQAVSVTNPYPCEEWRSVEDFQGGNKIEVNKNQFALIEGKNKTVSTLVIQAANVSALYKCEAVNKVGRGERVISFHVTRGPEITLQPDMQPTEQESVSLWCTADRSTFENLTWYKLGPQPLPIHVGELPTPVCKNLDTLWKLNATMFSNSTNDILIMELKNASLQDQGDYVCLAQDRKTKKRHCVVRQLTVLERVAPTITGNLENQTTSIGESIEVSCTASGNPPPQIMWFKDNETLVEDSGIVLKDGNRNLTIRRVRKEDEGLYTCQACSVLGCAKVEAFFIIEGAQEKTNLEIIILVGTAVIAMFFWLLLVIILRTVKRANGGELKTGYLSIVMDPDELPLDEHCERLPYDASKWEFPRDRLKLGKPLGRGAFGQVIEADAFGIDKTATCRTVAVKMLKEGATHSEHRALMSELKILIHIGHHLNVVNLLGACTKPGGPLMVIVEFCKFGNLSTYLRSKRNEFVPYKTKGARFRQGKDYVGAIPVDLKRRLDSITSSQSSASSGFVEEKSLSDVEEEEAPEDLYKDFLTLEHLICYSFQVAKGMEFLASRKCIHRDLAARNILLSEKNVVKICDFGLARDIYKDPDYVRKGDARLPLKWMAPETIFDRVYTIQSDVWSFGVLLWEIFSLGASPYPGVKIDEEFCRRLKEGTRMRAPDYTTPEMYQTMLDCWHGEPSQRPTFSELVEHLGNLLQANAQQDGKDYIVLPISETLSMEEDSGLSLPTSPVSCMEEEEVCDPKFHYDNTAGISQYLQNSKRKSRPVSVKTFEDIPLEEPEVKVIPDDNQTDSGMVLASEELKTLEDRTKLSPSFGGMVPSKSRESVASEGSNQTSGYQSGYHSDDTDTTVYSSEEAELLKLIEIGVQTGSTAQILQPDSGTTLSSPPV

VEGFR2 [2] = target: T2, VEGFR2; experiment: VEGFR2 Kinase Assay (biochemical KDR kinase, poly-Glu-Tyr ELISA); set-up: 200-300 ng purified cytoplasmic domain KDR protein; purchased BPS Bioscience; settings: purified cytoplasmic domain KDR protein, 2.7 μM ATP
Procedure: Biochemical KDR kinase assays were performed in 96 well microtiter plates that were coated overnight with 75 μg/well of poly-Glu-Tyr (4:1) in 10 mM Phosphate Buffered Saline (PBS), pH 7.4. The coated plates were washed with 2 mls per well PBS+0.05% Tween-20 (PBS-T), blocked by incubation with PBS containing 1% BSA, then washed with 2 mls per well PBS-T prior to starting the reaction. Reactions were carried out in […] reaction volumes containing 2.7 μM ATP in kinase buffer (50 mM Hepes buffer pH 7.4, 20 mM MgCl2, 0.1 mM MnCl2 and 0.2 mM Na3VO4). Test compounds were reconstituted in 100% DMSO and added to the reaction to give a final DMSO concentration of 5%. Reactions were initiated by the addition 20 ul per well of kinase buffer containing 200-300 ng purified cytoplasmic domain KDR protein (BPS Bioscience, San Diego, Calif.). Following a 15 minute incubation at 30° C., the reactions were washed 2 mls per well PBS-T. 100 μl of a monoclonal anti-phosphotyrosine antibody-peroxidase conjugate diluted 1:10,000 in PBS-T was added to the wells for 30 minutes. Following a 2 mls per well wash with PBS-Tween-20, 100 μl of O-Phenylenediamine Dihydrochloride in phosphate-citrate buffer, containing urea hydrogen peroxide, was added to the wells for 7-10 minutes as a colorimetric substrate for the peroxidase. The reaction was terminated by the addition of 100 μl of 2.5NH2SO4 to each well and read using a microplate ELISA reader set at 492 nm. IC50 values for compound inhibition were calculated directly from graphs of optical density (arbitrary units) versus compound concentration following subtraction of blank values.
Target sequence in this assay (P35968 786-1356 limits assumed): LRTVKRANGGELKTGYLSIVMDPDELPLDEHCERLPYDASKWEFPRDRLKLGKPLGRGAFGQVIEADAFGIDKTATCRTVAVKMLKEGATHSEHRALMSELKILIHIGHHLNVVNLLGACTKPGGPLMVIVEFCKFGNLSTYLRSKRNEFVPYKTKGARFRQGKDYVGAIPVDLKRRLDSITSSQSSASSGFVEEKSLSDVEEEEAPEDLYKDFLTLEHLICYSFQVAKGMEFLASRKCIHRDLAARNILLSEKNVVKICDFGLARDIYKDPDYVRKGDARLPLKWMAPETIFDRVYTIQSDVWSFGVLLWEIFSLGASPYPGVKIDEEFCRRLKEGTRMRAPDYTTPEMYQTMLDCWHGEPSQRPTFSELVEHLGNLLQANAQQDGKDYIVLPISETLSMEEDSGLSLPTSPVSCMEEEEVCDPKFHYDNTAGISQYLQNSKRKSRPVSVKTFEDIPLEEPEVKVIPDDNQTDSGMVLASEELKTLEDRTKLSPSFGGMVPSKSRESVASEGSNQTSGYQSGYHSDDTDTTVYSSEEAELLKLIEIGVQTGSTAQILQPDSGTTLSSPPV

VEGFR1 = VEGFR1 (Homo sapiens, UniProt P17948); experiment: VEGFR1 Kinase; type: biochemical
Sequence of VEGFR1 (P17948 27-1338, species assumed): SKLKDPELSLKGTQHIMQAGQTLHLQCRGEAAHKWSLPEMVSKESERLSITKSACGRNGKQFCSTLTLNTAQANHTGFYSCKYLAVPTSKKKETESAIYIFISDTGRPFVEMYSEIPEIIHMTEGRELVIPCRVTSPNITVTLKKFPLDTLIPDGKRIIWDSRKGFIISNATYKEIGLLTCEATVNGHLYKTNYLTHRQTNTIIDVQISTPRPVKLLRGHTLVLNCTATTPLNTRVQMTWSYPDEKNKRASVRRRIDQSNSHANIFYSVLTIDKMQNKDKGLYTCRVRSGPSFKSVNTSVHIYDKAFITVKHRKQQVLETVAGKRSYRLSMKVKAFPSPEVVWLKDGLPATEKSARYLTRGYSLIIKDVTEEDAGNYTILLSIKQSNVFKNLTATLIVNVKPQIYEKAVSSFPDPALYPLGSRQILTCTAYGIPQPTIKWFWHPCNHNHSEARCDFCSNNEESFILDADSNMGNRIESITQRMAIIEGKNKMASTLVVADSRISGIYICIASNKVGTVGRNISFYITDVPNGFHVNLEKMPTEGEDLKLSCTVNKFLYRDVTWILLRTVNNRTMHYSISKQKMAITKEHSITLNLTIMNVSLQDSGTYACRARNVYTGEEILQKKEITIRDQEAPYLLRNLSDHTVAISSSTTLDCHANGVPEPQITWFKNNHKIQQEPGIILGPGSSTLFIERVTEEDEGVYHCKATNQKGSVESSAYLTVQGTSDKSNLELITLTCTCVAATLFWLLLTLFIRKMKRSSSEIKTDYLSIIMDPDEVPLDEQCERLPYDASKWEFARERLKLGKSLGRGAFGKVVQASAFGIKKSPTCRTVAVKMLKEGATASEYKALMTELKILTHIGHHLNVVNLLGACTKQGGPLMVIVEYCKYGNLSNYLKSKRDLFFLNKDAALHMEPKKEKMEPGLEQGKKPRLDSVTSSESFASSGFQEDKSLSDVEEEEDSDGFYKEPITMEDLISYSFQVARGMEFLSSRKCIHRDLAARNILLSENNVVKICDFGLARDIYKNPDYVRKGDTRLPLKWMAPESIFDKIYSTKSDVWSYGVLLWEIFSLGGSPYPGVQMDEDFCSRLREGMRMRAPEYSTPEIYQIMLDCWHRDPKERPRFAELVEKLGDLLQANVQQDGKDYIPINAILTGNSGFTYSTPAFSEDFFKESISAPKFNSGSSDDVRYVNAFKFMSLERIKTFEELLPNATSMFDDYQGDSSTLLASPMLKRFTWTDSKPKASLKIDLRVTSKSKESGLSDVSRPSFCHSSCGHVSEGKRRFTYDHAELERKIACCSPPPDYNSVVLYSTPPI

T1 sequence (P09619 554-1106 limits assumed): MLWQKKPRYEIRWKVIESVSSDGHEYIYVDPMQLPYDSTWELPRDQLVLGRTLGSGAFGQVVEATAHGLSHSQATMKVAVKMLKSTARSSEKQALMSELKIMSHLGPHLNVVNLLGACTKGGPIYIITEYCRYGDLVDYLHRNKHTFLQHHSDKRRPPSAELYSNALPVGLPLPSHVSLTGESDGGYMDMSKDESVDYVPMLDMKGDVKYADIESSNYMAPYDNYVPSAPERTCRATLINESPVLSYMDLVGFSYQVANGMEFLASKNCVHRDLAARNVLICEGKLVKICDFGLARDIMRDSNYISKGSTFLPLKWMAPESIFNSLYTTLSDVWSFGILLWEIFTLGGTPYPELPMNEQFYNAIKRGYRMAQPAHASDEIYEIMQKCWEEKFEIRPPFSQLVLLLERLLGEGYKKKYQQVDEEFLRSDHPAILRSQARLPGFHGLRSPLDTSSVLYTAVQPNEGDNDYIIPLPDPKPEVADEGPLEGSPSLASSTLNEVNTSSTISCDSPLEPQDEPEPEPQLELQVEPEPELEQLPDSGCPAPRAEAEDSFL

SMILES	pIC50 (PDGFRβ)	pIC50 (VEGFR2 [1])	pIC50 (VEGFR2 [2])	pIC50 (VEGFR1)
COC(=O)CCCCS(=O)(CCCCC(=O)OC)=NC(=O)c1cnc(N)c(C#Cc2cccc(NC(=O)c3cccc(Cl)c3)c2)c1 [Example 6]	7.68	9.00	7.96	
COC(=O)CCCCS(=O)(CCCCC(=O)OC)=NC(=O)c1cnc(N)c(C#Cc2cccc(NC(=O)c3cc(C)ccc3F)c2)c1 [Example 7, Dimethyl 5,5′-(N-{[6-amino-5-({3-[(2-fluoro-5-methylbenzoyl)amino]phenyl}ethynyl)pyridin-3-yl]carbonyl}sulfonimidoyl)dipentanoate]	7.54	7.31	7.96	7.89
COC(=O)CCCCS(=O)(CCCCC(=O)OC)=NC(=O)c1cnc(N)c(C#Cc2cccc(NC(=O)c3cccc([S+](C)[O-])c3)c2)c1 (centres unmarked) [Example 8, Dimethyl 5,5′-[N-({6-amino-5-[(3-{[3-(methylsulfinyl)benzoyl]amino}phenyl)ethynyl]pyridin-3-yl}carbonyl)sulfonimidoyl]dipentanoate]		8.22	7.92	
COC(=O)CCCCS(=O)(CCCCC(=O)OC)=NC(=O)c1cnc(N)c(C#Cc2cccc(NC(=O)c3cc(C(F)(F)F)ccc3F)c2)c1 [Example 10, Dimethyl 5,5′-[N-({6-amino-5-[(3-{[2-fluoro-5-(trifluoromethyl)benzoyl]amino}phenyl)ethynyl]pyridin-3-yl}carbonyl)sulfonimidoyl]dipentanoate]	7.16	8.22	7.70	
COC(=O)CCCCS(=O)(CCCCC(=O)OC)=NC(=O)c1cnc(N)c(C#Cc2cccc(C(=O)Nc3ccc(F)c(Cl)c3)c2)c1 [Example 15, Dimethyl 5,5′-[N-({6-amino-5-[(3-{[(3-chloro-4-fluorophenyl)amino]carbonyl}phenyl)ethynyl]pyridin-3-yl}carbonyl)sulfonimidoyl]dipentanoate]	7.17	7.96	7.82	
COC(=O)CCCCS(=O)(CCCCC(=O)OC)=NC(=O)c1cnc(N)c(C#Cc2cccc(C(=O)Nc3cc(C(C)(C)C)on3)c2)c1 [Example 16, Dimethyl 5,5′-[N-({6-amino-5-[(3-{[(5-tert-butylisoxazol-3-yl)amino]carbonyl}phenyl)ethynyl]pyridin-3-yl}carbonyl)sulfonimidoyl]dipentanoate]	7.70		7.55	7.57
COC(=O)CCCCS(=O)(CCCCC(=O)OC)=NC(=O)c1cnc(N)c(C#Cc2cccc(C(=O)Nc3ccc(Cl)c(C(F)(F)F)c3)c2)c1 [Example 17, Dimethyl 5,5′-{N-[(6-amino-5-{[3-({[4-chloro-3-(trifluoromethyl)phenyl]amino}carbonyl)phenyl]ethynyl}pyridin-3-yl)carbonyl]sulfonimidoyl}dipentanoate]	7.44		7.43	7.49
COC(=O)CCCCS(=O)(CCCCC(=O)OC)=NC(=O)c1cnc(N)c(C#Cc2cccc(NC(=O)Nc3cc(C)ccc3F)c2)c1 [Example 18, Dimethyl 5,5′-{N-[(6-amino-5-{[3-({[(2-fluoro-5-methylphenyl)amino]carbonyl}amino)phenyl]ethynyl}pyridin-3-yl)carbonyl]sulfonimidoyl}dipentanoate]		7.64	8.00	

More lines, in order of rising pIC50 (VEGFR2 [2]), values ahead:

pIC50 (PDGFRβ)	pIC50 (VEGFR2 [1])	pIC50 (VEGFR2 [2])	pIC50 (VEGFR1)	SMILES
8.00	8.52	8.00		COC(=O)CCCCS(=O)(CCCCC(=O)OC)=NC(=O)c1cnc(N)c(C#Cc2cccc(NC(=O)c3cccc(C(F)(F)F)c3)c2)c1 [Example 5, Dimethyl 5,5′-[N-({6-amino-5-[(3-{[3-(trifluoromethyl)benzoyl]amino}phenyl)ethynyl]pyridin-3-yl}carbonyl)sulfonimidoyl]dipentanoate]
7.60	> 9.00	8.05		COC(=O)CCCCS(=O)(CCCCC(=O)OC)=NC(=O)c1cnc(N)c(C#Cc2cccc(NC(=O)c3cccc(C)c3)c2)c1 [Example 1, Dimethyl 5,5′-(N-{[6-amino-5-({3-[(3 methylbenzoyl)amino]phenyl}ethynyl)pyridin-3-yl]carbonyl}sulfonimidoyl)dipentanoate]
7.42	8.30	8.05		COC(=O)CCCCS(=O)(CCCCC(=O)OC)=NC(=O)c1cnc(N)c(C#Cc2cccc(C(=O)Nc3ccc(OC)c(Cl)c3)c2)c1 [Example 13, Dimethyl 5,5′-[N-({6-amino-5-[(3-{[(3-chloro-4-methoxyphenyl)amino]carbonyl}phenyl)ethynyl]pyridin-3-yl}carbonyl)sulfonimidoyl]dipentanoate]
7.47	8.70	8.10		COC(=O)CCCCS(=O)(CCCCC(=O)OC)=NC(=O)c1cnc(N)c(C#Cc2cccc(NC(=O)c3ccc(F)c(Cl)c3)c2)c1 [Example 4, Dimethyl 5,5′-(N-{[6-amino-5-({3-[(3-chloro-4-fluorobenzoyl)amino]phenyl}ethynyl)pyridin-3-yl]carbonyl}sulfonimidoyl)dipentanoate]
7.24	9.00	8.10		COC(=O)CCCCS(=O)(CCCCC(=O)OC)=NC(=O)c1cnc(N)c(C#Cc2cccc(C(=O)Nc3cccc(C)c3)c2)c1 [Example 12, Dimethyl 5,5′-[N-({6-amino-5-[(3-{[(3-methylphenyl)amino]carbonyl}phenyl)ethynyl]pyridin-3-yl}carbonyl)sulfonimidoyl]dipentanoate]
	8.40	8.30		COC(=O)CCCCS(=O)(CCCCC(=O)OC)=NC(=O)c1cnc(N)c(C#Cc2cccc(NC(=O)c3cccc(SC)c3)c2)c1 [Example 3, Dimethyl 5,5′-[N-({6-amino-5-[(3-{[3-(methylthio)benzoyl]amino}phenyl)ethynyl]pyridin-3-yl}carbonyl)sulfonimidoyl]dipentanoate]
7.42	8.70	8.40		COC(=O)CCCCS(=O)(CCCCC(=O)OC)=NC(=O)c1cnc(N)c(C#Cc2cccc(C(=O)Nc3cccc(OC)c3)c2)c1 [Example 11, Dimethyl 5,5′-[N-({6-amino-5-[(3-{[(3-methoxyphenyl)amino]carbonyl}phenyl)ethynyl]pyridin-3-yl}carbonyl)sulfonimidoyl]dipentanoate]
6.75	8.52	8.52	8.00	COC(=O)CCCCS(=O)(CCCCC(=O)OC)=NC(=O)c1cnc(N)c(C#Cc2cccc(NC(=O)c3occc3C)c2)c1 [Example 2, Dimethyl 5,5′-(N-{[6-amino-5-({3-[(3-methyl-2-furoyl)amino]phenyl}ethynyl)pyridin-3-yl]carbonyl}sulfonimidoyl)dipentanoate]
